≈ marks a conversion by molar mass, not a printed value. Where two headings read alike, the source gives them in different places.
Assays:
[1] = system: Herpes simplex type 1 (HSV-1) strain E-377
[2] = system: Herpes simplex type 2 (HSV-2) strain MS; assay: microbe, parasite or virus in culture; conditions: Human alphaherpesvirus 2, Vero, read-out: ID50: minimum drug concentration that inhibited the CPE by 50%
[3] = system: Herpes simplex type 2 (HSV-2) strain MS
[4] = system: Herpes simplex type 1 (HSV-1) strain E-377; assay: microbe, parasite or virus in culture; conditions: Human alphaherpesvirus 1, Vero, read-out: ID50: minimum drug concentration that inhibited the CPE by 50%
[5] = Drug cytotoxicity in Vero host cells (cytotoxicity controls of the CPE-inhibition assay); conditions: african green monkey, vero cells
Procedure: (§1) The challenge viruses were propagated and assayed in cells that were pregrown as monolayer cultures in plastic tissue culture flasks and 96-well plates, using cell culture media appropriate for the host cell cultures. The following viruses and host cell cultures were employed:
(§2) On the day of use, a weighed sample of each compound to be evaluated was dissolved and diluted in serial 10^0.5 dilutions in the culture medium appropriate for each virus-host cell system.
(§3) Mammalian cells were pregrown as monolayers in wells of COSTAR 96-well tissue culture plates using suitable cell culture media. Stock viruses were pretitered according to the method of Reed and Muench (Amer. J. Hyg. 27:493-497, 1938) and diluted in cell culture medium to yield 32 CCID50 (cell culture infectious dose, 50%) units per 0.1 ml. Antiviral assays were designed to test seven concentrations of each compound, from cytotoxic to noncytotoxic levels, in triplicate against each of the challenge viruses in microtiter plate wells containing suitable cell monolayers. To each of the replicate cell cultures were added 0.1 ml of the test drug solution and 0.1 ml of virus suspension. Cell controls containing medium alone, virus controls containing medium and virus, and drug cytotoxicity controls containing medium and each drug concentration were run simultaneously with the test samples assayed in each experiment. […] The cell monolayers were examined microscopically for virus-induced CPE and for drug cytotoxicity.
(§4) Antiviral activity was determined by calculating the degree of inhibition of virus-induced CPE in drug-treated, virus-infected cell cultures by means of a virus rating (VR). The VR is a standard weighted measurement of antiviral activity taking into account both the degree of CPE inhibition and drug cytotoxicity, and is determined by a modification of the method of Ehrlich et al. (Ann. N.Y. Acad. Sci. 130 : 5-16, 1965) as described below. CPE was graded for each individual culture in each microtiter plate well according to the following scale:
(§5) ^3 MTC=The minimum drug concentration (ug/ml) causing any cytotoxicity.

[6] = system: African green monkey kidney (Vero); assay: as above; conditions: Vero, HSV-2 (MS) experiment
Procedure: as §1, §2, §3, §4, §5

[7] = in vitro; conditions: dog, mdck
Procedure: as §1, §2
Mammalian cells were pregrown as monolayers in wells of COSTAR 96-well tissue culture plates using suitable cell culture media. Stock viruses were pretitered according to the method of Reed and Muench (Amer. J. Hyg. 27:493-497, 1938) and diluted in cell culture medium to yield 32 CCID50 (cell culture infectious dose, 50%) units per 0.1 ml. Antiviral assays were designed to test seven concentrations of each compound, from cytotoxic to noncytotoxic levels, in triplicate against each of the challenge viruses in microtiter plate wells containing suitable cell monolayers. To each of the replicate cell cultures were added 0.1 ml of the test drug solution and 0.1 ml of virus suspension. […]
Antiviral activity was determined by calculating the degree of inhibition of virus-induced CPE in drug-treated, virus-infected cell cultures by means of a virus rating (VR). […]

[8] = system: Human influenza type A (IV-A) strain PR/8/34 (HINI); assay: CPE-inhibition assay against human influenza virus type A in MDCK cells; format: cell-based

Row | SMILES | TI (Therapeutic Index): minimum cytotoxic drug concentration divided by ID50 ([1]; HSV-1 E-377, Vero) | VR (Virus Rating) ([1]; HSV-1 E-377, Vero, VR 1.0 definite activity, 0.5-0.9 marginal to moderate, <0.5 usually none) | IC50 [2] [µg/mL] | TI (Therapeutic Index): minimum cytotoxic drug concentration divided by ID50 ([3]; HSV-2 MS, Vero) | VR (Virus Rating) ([3]; HSV-2 MS, Vero, VR 1.0 definite activity, 0.5-0.9 marginal to moderate, <0.5 usually none) | IC50 [4] [µg/mL] | MCC [5] [µg/mL] | MTC: minimum drug concentration causing any cytotoxicity [6] [µg/mL] | VR (Virus Rating) [1] | VR (Virus Rating) [3] | MCC [7] [µg/mL] | VR (Virus Rating) [8]
1 | Nc1nc2c(ncn2C2CC2CCO)c(=O)[nH]1 (stereo not drawn) [Example 2E, 9-[2-(2'-hydroxyethyl)cyclopropyl]guanine] | > 10.4 | 3.7 | 77.7 (≈ 330 µM) | > 4.1 | 2.3 | 31.6 (≈ 134 µM) | > 320 | > 320 |  |  |  | 
2 | Nc1nc2c(ncn2C2CC2C(O)CO)c(=O)[nH]1 (stereo not drawn) [Example 3G] | 3.2 |  | 159 (≈ 633 µM) | 2.0 |  | 101 (≈ 402 µM) | > 320 | > 320 | 1.8 | 1.3 | > 320 | 0.6

Reference: US4988703A, “Carbocyclic nucleoside analogs with antiviral activity” (Abbott Laboratories, priority 1989, dated 1991)
